Like-named read-outs stand apart in the source and are kept apart here.
System: colonic secretory chloride channel
Experiment: Single chloride channels from rat colonic enterocyte plasma membrane vesicles incorporated into planar lipid bilayers; calixarene added to the cis (outer membrane) side
Assay type: biochemical
Details: for duration of the block periods: increases with size n of p-sulfonatocalix[n]arene; for MAXIMUM BLOCK PERIODS: single channel in PE:PS 7:3 planar bilayer; for MAXIMUM BLOCK PERIODS (block of channel): UPTO 100 μM
Description: In accordance with the methodology of Reinhardt et al., "Properties of an Anion-selective Channel from Rat Colonic Enterocyte Plasma Membranes Reconstituted into Planar Phospholipid Bilayers", J. Membrane Biol. 95: 47-54, 1987, calixarene derivatives were tested on single chloride channels incorporated into planar lipid bilayers. Plasma membrane vesicles derived from rat colonic enterocytes were used as a source of chloride channels. Properties of the colonic secretory chloride channel include one dominant open-state conductance, an outwardly rectified current-voltage relation with a zero voltage slope conductance of 50 pS in 150 mM Cl, a Cl to Na selectivity of at least 10:1, and a halide selectivity of I>Br>CI>F. Patch-clamp studies of several chloride secreting epithelia have identified an apical membrane chloride channel with identical biophysical properties. This channel is activated by CAMP and Ca mediated agonists and thus is considered a secretory chloride channel.
Chloride channels were incorporated into planar lipid bilayers of phosphatidylethanolamine and phosphatidylserine (PE:PS, 7:3) and data recorded according to known test methodology. See, Bridges et al., "Stilbene Disulfonate Blockade of Colonic Secretory Cl^- Channels in Planar Lipid Bilayers", Am. J. Physiol. 256 (Cell Physiol. 25): C902-C912, 1989. See also, Reinhardt et al. and Singh et al., supra.
Once a chloride channel was incorporated into the bilayer, baseline (control) channel activity was recorded for 5-15 minutes. The calixarenes were then added to the cis or outer membrane side of the channel and the channel activity recorded for an additional 5-15 minutes at each concentration. Because each channel serves as its own control, calixarene effects could be uniquely identified. In some experiments the cis compartment was exchanged with calixarene-free solution to test the reversibility of the calixarene-induced effects. Single channel records were stored on video tape and quantitatively evaluated by computer assisted analysis.

[1] = single channel in planar bilayer, Table 1, read-out: Ki (concentration causing a half-maximal inhibition)

| Structure (SMILES) | Ki [1] | Ki (read-out: concentration causing a half maximal decrease (K1) in Po (percent time channel in open state)) | K1 (suggested from brief open periods between long blocks) (estimate) | duration of the block periods | MAXIMUM BLOCK PERIODS (Table 1) | long-lived block periods, duration (at a concentration as low as 3 nM) | MAXIMUM BLOCK PERIODS (block of channel) | blocking the chloride channel (even at a concentration as high as 100 μM) |
| --- | --- | --- | --- | --- | --- | --- | --- | --- |
| O=S(=O)(O)c1cc2c(O)c(c1)Cc1cc(S(=O)(=O)O)cc(c1O)Cc1cc(S(=O)(=O)O)cc(c1O)Cc1cc(S(=O)(=O)O)cc(c1O)Cc1cc(S(=O)(=O)O)cc(c1O)Cc1cc(S(=O)(=O)O)cc(c1O)C2 [5,11,17,23,29,35-hexasulfonatocalix[6]arene] | 400 to 500 nM | – | – | 30 to 40 s | 30 to 40 s | – | – | – |
| COc1c2cccc1Cc1cccc(c1OC)Cc1cccc(c1OC)Cc1cccc(c1OC)C2 [25,26,27,28-TETRAMETHOXY-CALIX[4]ARENE, reference compound] | – | – | – | – | – | – | NO BLOCK | – |
| Oc1c2cccc1Cc1cccc(c1O)Cc1cccc(c1O)Cc1cccc(c1O)C2 [CALIX[4]ARENE, Calix[4]arene, reference compound] | – | – | – | – | – | – | NO BLOCK | completely ineffective |

Now from value to compound, other results behind:

| Ki [1] | Ki (read-out: concentration causing a half maximal decrease (K1) in Po (percent time channel in open state)) | K1 (suggested from brief open periods between long blocks) (estimate) | Structure (SMILES) | duration of the block periods | MAXIMUM BLOCK PERIODS (Table 1) | long-lived block periods, duration (at a concentration as low as 3 nM) | MAXIMUM BLOCK PERIODS (block of channel) | blocking the chloride channel (even at a concentration as high as 100 μM) |
| --- | --- | --- | --- | --- | --- | --- | --- | --- |
| < 50 nM | – | – | O=S(=O)(O)c1cc2c(O)c(c1)Cc1cc(S(=O)(=O)O)cc(c1O)Cc1cc(S(=O)(=O)O)cc(c1O)Cc1cc(S(=O)(=O)O)cc(c1O)Cc1cc(S(=O)(=O)O)cc(c1O)Cc1cc(S(=O)(=O)O)cc(c1O)Cc1cc(S(=O)(=O)O)cc(c1O)Cc1cc(S(=O)(=O)O)cc(c1O)C2 [5,11,17,23,29,35,41,47-octasulfonatocalix[8]arene] | > 100 s | > 100 s | – | – | – |
| 800 to 900 nM | < 1000 nM | – | O=S(=O)(O)c1cc2c(O)c(c1)Cc1cc(S(=O)(=O)O)cc(c1O)Cc1cc(S(=O)(=O)O)cc(c1O)Cc1cc(S(=O)(=O)O)cc(c1O)C2 [5,11,17,23-TETRASULFONATO-CALIX[4]ARENE, 5,11,17,23-tetrasulfonato-calix[4]arene] | 3 to 4 s | 3 to 4 s | – | – | – |
| < 3 nM | – | subnanomolar | COc1c2cc(S(=O)(=O)O)cc1Cc1cc(S(=O)(=O)O)cc(c1OC)Cc1cc(S(=O)(=O)O)cc(c1OC)Cc1cc(S(=O)(=O)O)cc(c1OC)C2 [5,11,17,23-tetrasulfonato-25,26,27,28-tetramethoxy-calix[4]arene] | – | > 100 s | several hundred | – | – |
